The text below walks through data of patent EP0934249B1, “CONFORMATIONALLY RESTRICTED POLYAMINES AND THEIR USE AS ANTINEOPLASTIC AGENTS” (WISCONSIN ALUMNI RESEARCH FOUNDATION, priority 1996, dated 1998).

Counter-ions that a name gives are not always drawn. Some results are limits rather than exact numbers.

Common to all, as to type: cell-based
The subject of assay [1] is MCF7. Put plainly: colony formation (plating efficiency) cell survival assay, standard protocol of Examples 1-8. As to conditions: Homo sapiens; survival of cultured breast cancer cells MCF7; 4 hours drug exposure, colonies counted day 15-20; read-out: ED50 (the source's name). How it is done:
(§1) Human breast cancer cell line MCF7 was grown in Richter's Improved Modified Eagle's Medium supplemented with 10% fetal bovine serum (FBS) and 2.2 g/L sodium bicarbonate. Human brain cancer cell line U251MG-NCI was grown in Dulbecco's Modified Eagle's Medium supplemented with 10% FBS. Human lung cancer cell line A549 was grown in Ham's F-12K medium (Fisher Scientific, Itasca, Illinois), supplemented with 10% FBS and 2 mM L-glutamine. Human colon cancer cell line HT29 was cultured in McCoy's 5A medium (Gibco, BRL, Gaithersburg, Maryland), supplemented with 10% FBS. Human prostate cancer cell line PC3 was grown in Dulbecco's Modified Eagles Medium supplemented with 5% FBS. The A549 and MCF7 cell lines were cultured in 100 units/mL penicillin and 100 µg/mL streptomycin. HT29 and U251MG cell lines were grown in 50 µg/mL gentamycin. PC3 cell lines were maintained in 1% antibiotic-antimycotic solution (Sigma, St. Louis, Missouri). The cell cultures were maintained at 37°C in 5% CO2/95% humidified air. All cell cultures are available from the American Type Culture Collection, Rockville, Maryland.
Ten standard culture flasks for each drug to be tested were plated with 5 x 10^5 cells of a given type in 5 mL of media and allowed to incubate for 16-24 hours at 37°C.
Fresh stocks of the compounds to be evaluated are prepared. For each drug, two of the ten culture flasks prepared on Day 1 are used as controls. The control flasks are treated with solvent only. Four flasks for each compound are then treated with serially-diluted concentrations of the compound. The remaining flasks are left untouched. The cells are incubated for 4 hours at 37°C.
After 4 hours the control flasks are counted (2 counts for each flask) and the cells per mL calculated based on the average of the control counts. The cells are then re-plated into six 60 mm dishes for each flask from dilutions based on the cells/mL of the control. (In the various test runs, cell concentrations ranged from approximately 50 to approximately 800 cells per mL.)
The cells are monitored for colony formation. When visible, the cells are stained with 0.5% crystal violet (in 95% EtOH) and counted. The plating efficiency for each dish is then calculated. The plating efficiencies of the six dishes for each flask are averaged and the standard deviation is calculated. The fraction of cell survival at each concentration is determined based on the controls.

In the next assay the test system is PC-3. The assay can be described thus: MTT assay, percent cell survival. The conditions noted are these: Homo sapiens, PC-3, 144 h; drug concentration that killed 50% of the cultured cells; MTT six days after drug treatment; read-out: ID50(µM) PC-3. How it is done:
as §1
(§2) Here, a conventional MTT assay was used to evaluate percent cell survival. Exponentially growing monolayer cells were plated in 96-well plates at a density of 500 cells per well and allowed to grow for 24 hours. Serial dilutions of the drugs were added to the wells. Six days after drug treatment, 25 µl of MTT solution (5 mg/ml) was added to each well and incubated for 4 hours at 37°C. Then 100 µl of lysis buffer (20% sodium dodecyl sulfate, 50% DMF, and 0.8% acetic acid, pH 4.7) was added to each well and incubated for an additional 22 hours. A microplate reader ("EMAX"-brand, Molecular Devices, Sunnyvale, California) set at 570 nm was used to determine the optical density of the cultures. Results are expressed as a ratio of the optical density in drug-treated wells to the optical density in wells treated with vehicle only.
(§3) The ID50 is the drug concentration that killed 50% of the cultured cells.
(Tetrazolium assays rely on reduction of a dye to a coloured formazan, in cell work by metabolically active cells.)

For the next assay, the system named is A549. The assay can be described thus: MTT assay, percent cell survival. The conditions noted are these: Homo sapiens, A549, 144 h; drug concentration that killed 50% of the cultured cells; MTT six days after drug treatment; read-out: ID50(µM) A549. How it is done: as §1, §2, §3
In the next assay the test system is HT-29. Put plainly: MTT assay, percent cell survival. As to conditions: Homo sapiens, HT-29, 144 h; drug concentration that killed 50% of the cultured cells; MTT six days after drug treatment; read-out: ID50(µM) HT-29. How it is done: as §1, §2, §3
Assay [2] concerns MCF7. The assay can be described thus: MTT assay, percent cell survival. The conditions noted are these: Homo sapiens, MCF7, 144 h; drug concentration that killed 50% of the cultured cells; MTT six days after drug treatment; read-out: ID50(µM) MCF7. How it is done:
as §1, §2, §3

The next assay deals with U251MG NCl. Put plainly: MTT assay, percent cell survival. As to conditions: Homo sapiens, U-251, 144 h; drug concentration that killed 50% of the cultured cells; MTT six days after drug treatment; read-out: ID50(µM) U251MG NCl. The procedure: as §1, §2, §3

For `CCNCCCNC[C@@H]1C[C@@H]1CNCCCNCC` [SL-11037, N-Ethyl-N'-(2-(3'-ethylamino-propylaminomethyl)-cis-cyclopropylmethyl)-propane 1,3-diamine tetrahydrochloride], the EC50 in the assay with MCF7 [1] came out at 1640 nM. Further, the IC50 is 7.4 µM in the assay with PC-3, 0.12 µM with A549, 1.6 µM with HT-29 and > 31.2 µM in the assay with MCF7 [2].
The like results for `CCNCCCNCC1CC1CNCCCNCC` (stereo not drawn) [SL-11038, N-Ethyl-N'-(2-(3'-ethylamino-propylaminomethyl)-trans-cyclopropylmethyl)-propane-1,3-diamine tetrahydrochloride] were, in that order, 1340 nM, 12.4 µM, 0.25 µM, 1.4 µM and > 31.2 µM.
For the compound `CCNCCCNC[C@H]1CC[C@H]1CNCCCNCC` [SL-11043, N-Ethyl-N'-(2-(3'-ethylamino-propylaminomethyl)-cis-cyclobutylmethyl)-propanel,3-diamine tetrahydrochloride], in the assay on MCF7 [1], the EC50 was 1640 nM. Moreover, the IC50 with PC-3 was > 31.2 µM; with HT-29 it was 1.5 µM; with MCF7 [2] it was 25.5 µM.
As for `CCNCCCNCC1CCC1CNCCCNCC` (stereo not drawn) [SL-11044, N-Ethyl-N'-(2-(3'-ethylamino-propylaminomethyl)-trans-cyclobutylmethyl)-propane1,3-diaminetetrahydrochloride], the EC50 in the assay with MCF7 [1] is 1790 nM. Besides, the IC50 is > 31.2 µM in the assay on PC-3, 0.12 µM with U251MG NCl, 1.6 µM in the assay on HT-29 and > 31.2 µM in the assay on MCF7 [2].
Turning to `CCNCCCNC/C=C\CNCCCNCC` [SL-11047, N,N^1-bis(3-ethylaminapropyl)-(Z)-but-2-ene-1,4-diamine tetrahydrochloride], the EC50 in the assay with MCF7 [1] is 1490 nM. The IC50 in the assay on PC-3 turned out to be 3.6 µM; in the assay with A549, 0.25 µM; in the assay with U251MG NCl, 0.55 µM; with HT-29, 1.6 µM; with MCF7 [2], 9.5 µM.
As for `CCNCCCNC/C=C/CNCCCNCC` [SL-11048, N,Nl-bis(3-ethylaminopropyl)-(E)-but-2-ene-1,4-diamine tetrahydrochloride, reference compound], in the assay on MCF7 [1], the EC50 was found to be 1490 nM. Besides, the IC50 with PC-3 was 1.4 µM; with A549, 0.26 µM; with U251MG NCl, 2 µM; in the assay with HT-29 it was 1.4 µM; with MCF7 [2], > 31.2 µM.
